Experimental data: BindingDB's records for doi:10.1038/sj.bjp.0701367 (Kyoto University, 1997)

Assays:
[1] = target: Prostaglandin E2 receptor EP4 subtype (Mus musculus, UniProt P32240)
[2] = target: T1, Prostaglandin E2 receptor EP3 subtype (Mus musculus, UniProt P30557)
T1 sequence (P30557 whole entry): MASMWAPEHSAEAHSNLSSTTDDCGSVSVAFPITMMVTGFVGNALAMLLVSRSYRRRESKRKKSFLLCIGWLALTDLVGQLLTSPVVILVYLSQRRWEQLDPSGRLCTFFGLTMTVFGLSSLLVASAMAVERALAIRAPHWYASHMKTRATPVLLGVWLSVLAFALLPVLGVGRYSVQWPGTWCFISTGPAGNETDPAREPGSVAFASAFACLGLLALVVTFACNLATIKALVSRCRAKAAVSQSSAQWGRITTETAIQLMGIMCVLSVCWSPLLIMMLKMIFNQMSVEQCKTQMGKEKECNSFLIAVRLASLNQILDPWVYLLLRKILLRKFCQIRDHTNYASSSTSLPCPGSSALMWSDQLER

[3] = target: Prostaglandin E2 receptor EP2 subtype (Mus musculus, UniProt Q62053)
Thromboxane A2 receptor = target: T2, Thromboxane A2 receptor (Mus musculus, UniProt P30987)
T2 sequence (P30987 whole entry): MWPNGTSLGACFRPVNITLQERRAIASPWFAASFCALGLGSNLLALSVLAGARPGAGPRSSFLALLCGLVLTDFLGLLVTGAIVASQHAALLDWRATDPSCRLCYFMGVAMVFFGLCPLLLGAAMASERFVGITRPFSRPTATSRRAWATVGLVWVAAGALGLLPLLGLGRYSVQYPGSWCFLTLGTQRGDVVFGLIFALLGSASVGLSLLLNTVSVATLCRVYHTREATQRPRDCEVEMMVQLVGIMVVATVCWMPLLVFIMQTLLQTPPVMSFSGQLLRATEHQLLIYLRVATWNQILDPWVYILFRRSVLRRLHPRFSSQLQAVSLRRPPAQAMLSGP

Prostacyclin receptor = Prostacyclin receptor (Mus musculus, UniProt P43252)
[4] = target: T3, Prostaglandin E2 receptor EP1 subtype (Mus musculus, UniProt P35375)
T3 sequence (P35375 whole entry): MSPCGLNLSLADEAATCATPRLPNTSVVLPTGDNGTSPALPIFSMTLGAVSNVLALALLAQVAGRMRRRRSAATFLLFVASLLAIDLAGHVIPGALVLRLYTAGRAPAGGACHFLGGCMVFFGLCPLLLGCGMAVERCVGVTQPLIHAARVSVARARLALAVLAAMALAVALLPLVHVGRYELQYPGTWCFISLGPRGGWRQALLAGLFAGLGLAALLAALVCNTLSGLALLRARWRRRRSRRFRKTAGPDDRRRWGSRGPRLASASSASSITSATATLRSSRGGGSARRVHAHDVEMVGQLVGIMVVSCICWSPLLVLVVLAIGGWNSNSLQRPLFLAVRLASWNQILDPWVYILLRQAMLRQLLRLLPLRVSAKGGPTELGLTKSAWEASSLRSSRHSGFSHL

[5] = target: Prostaglandin F2-alpha receptor (Mus musculus, UniProt P43117)
Chain of Prostaglandin F2-alpha receptor (P43117 whole entry): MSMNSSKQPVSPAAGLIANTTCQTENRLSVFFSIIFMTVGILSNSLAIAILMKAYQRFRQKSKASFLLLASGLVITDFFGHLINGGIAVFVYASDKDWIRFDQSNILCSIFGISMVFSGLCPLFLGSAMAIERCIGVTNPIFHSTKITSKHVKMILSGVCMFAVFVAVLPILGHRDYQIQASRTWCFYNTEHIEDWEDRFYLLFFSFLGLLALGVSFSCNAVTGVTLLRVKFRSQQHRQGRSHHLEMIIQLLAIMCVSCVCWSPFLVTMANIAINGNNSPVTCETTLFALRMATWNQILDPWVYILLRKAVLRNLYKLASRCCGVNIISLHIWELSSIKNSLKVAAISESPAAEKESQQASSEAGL

Chain of Prostaglandin E2 receptor EP2 subtype (Q62053 whole entry): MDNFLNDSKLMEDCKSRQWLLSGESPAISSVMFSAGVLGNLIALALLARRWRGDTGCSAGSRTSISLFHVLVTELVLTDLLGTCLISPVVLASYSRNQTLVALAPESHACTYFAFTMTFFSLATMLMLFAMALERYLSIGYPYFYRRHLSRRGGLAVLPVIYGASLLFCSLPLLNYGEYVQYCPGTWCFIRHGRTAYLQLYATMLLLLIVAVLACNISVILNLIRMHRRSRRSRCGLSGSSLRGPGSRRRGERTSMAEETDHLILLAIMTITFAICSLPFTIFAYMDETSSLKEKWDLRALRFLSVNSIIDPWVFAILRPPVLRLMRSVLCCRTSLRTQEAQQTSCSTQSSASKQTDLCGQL
Chain of Prostaglandin E2 receptor EP4 subtype (P32240 whole entry): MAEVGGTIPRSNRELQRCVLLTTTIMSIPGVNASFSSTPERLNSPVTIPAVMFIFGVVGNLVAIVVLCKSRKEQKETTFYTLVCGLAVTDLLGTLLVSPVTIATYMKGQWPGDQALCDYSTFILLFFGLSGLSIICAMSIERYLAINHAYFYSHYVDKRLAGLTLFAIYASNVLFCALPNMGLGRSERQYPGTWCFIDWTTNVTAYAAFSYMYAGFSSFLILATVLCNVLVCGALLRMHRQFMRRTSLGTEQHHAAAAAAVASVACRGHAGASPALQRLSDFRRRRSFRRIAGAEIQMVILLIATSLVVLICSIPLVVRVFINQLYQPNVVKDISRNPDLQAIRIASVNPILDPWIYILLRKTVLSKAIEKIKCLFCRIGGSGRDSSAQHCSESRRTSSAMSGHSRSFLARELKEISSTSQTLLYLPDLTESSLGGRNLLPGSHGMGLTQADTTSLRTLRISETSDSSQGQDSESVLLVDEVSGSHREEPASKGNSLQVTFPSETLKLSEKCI
Chain of Prostacyclin receptor (P43252 whole entry): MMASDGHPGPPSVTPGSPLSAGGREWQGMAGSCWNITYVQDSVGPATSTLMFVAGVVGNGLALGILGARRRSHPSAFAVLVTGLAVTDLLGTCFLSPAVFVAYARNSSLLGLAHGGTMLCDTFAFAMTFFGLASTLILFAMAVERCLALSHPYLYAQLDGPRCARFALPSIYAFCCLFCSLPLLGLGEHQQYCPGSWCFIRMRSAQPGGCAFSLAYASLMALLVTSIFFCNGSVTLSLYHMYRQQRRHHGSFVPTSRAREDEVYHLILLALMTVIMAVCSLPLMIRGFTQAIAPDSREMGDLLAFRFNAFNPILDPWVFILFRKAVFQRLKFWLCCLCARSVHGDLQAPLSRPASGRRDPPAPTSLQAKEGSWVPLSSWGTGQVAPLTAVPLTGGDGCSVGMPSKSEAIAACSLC

Ki [1] [nM]	Ki [2] [nM]	Ki [3] [nM]	Ki (Thromboxane A2 receptor) [nM]	Ki (Prostacyclin receptor) [nM]	Ki [4] [nM]	Ki [5] [nM]	SMILES
480	1.9	–	–	–	–	–	O=C(CCC=CCCC1C(=O)CC(O)C1OCC(O)COc1ccccc1)Oc1ccc(NC(=O)c2ccccc2)cc1 (configuration not stated) [NSC_5311224]
–	82	240	–	–	–	–	CCCCCC(O)c1ccc(C2CCC(=O)C2CCCCCCC(=O)O)cc1 (configuration not stated) [CAS_132836]
–	–	–	12	–	–	–	O=C(O)CC/C=C\CC[C@@H]1[C@@H](N2CCCCC2)[C@@H](O)C[C@@H]1OCc1ccc(-c2ccccc2)cc1 [GR 32191]
–	740	–	–	47	–	–	CC1=C(CCON=C(c2ccccc2)c2cccnc2)c2cccc(OCC(=O)O)c2CC1 [NSC_128021]
190	330	–	–	–	–	–	O=C(O)CCCCCCC1C(=O)CC(O)C1C=CC(O)CCCCCO (configuration not stated) [PGE1,1-OH]
–	0.6	–	–	–	21	580	CS(=O)(=O)NC(=O)CCCC=CCC1C(=O)CC(O)C1C=CC(O)COc1ccccc1 (configuration not stated) [CAS_60325-46-4]
–	–	–	–	–	–	3.8	O=C(O)CCCC=CCC1C(O)CC(O)C1C=CC(O)COc1cccc(C(F)(F)F)c1 (configuration not stated) [CAS_40666-16-8]
–	0.85	12	–	–	20	100	CCCCC[C@H](O)/C=C/[C@H]1[C@H](O)CC(=O)[C@@H]1C/C=C\CCCC(=O)O [DINOPROSTONE]
350	23	220	14	–	–	97	CCCCC[C@H](O)/C=C/C1C[C@H]2C[C@H](S2)[C@@H]1C/C=C\CCCC(=O)O (some centres not stated) [STA2]
43	1.9	17	–	–	–	350	CCCCC(C)(C)C(O)C=CC1C(O)CC(=O)C1CC=CCCCC(=O)O (configuration not stated)
–	–	–	67	–	–	1000	CCCCC[C@H](O)/C=C/C1[C@@H](C/C=C\CCCC(=O)O)[C@H]2CO[C@@H]1C2 (some centres not stated) [U46619]
23	1.5	45	–	1000	600	–	CCCCCC(O)C=CC1CCC(=O)C1CCCCCCC(=O)O (configuration not stated) [PGE1,11-DEOXY]
–	31	1000	–	15	–	–	CCCCCC(O)C=CC1C(O)CC2C=C(CCCCC(=O)O)CC21 (configuration not stated) [NSC_5311244]
–	100	220	0.56	–	–	100	O=C(O)CCC/C=C\C[C@H]1[C@@H]2CCC(O2)[C@@H]1/C=C/[C@@H](O)COc1ccc(I)cc1 [I-BOP]
–	–	350	–	–	–	–	CC(C)Oc1ccc2c(=O)c3cc(C(=O)O)ccc3oc2c1 [CAS_33458-93-4]
2.1	1.1	10	–	33	36	–	CCCCC[C@@H](O)/C=C/[C@H]1[C@H](O)CC(=O)[C@@H]1CCCCCCC(=O)O
–	–	–	0.68	–	–	–	O=C(O)CCC/C=C\C[C@@H]1C(NS(=O)(=O)c2ccccc2)C2CC[C@@H]1C2 (single isomer, unassigned; (+)) [S 145]
67	67	250	–	–	120	–	CCCCC(C)(O)CC=CC1C(O)CC(=O)C1CCCCCCC(=O)OC (configuration not stated) [MISOPROSTOL (Methyl Ester)]
–	75	–	–	–	1300	–	CCCCC[C@H](O)/C=C/C1[C@H](O)C[C@H](O)[C@@H]1C/C=C\CCCC(=O)O (stereo partly drawn) [(Z)-7-[(1R,3R,5S)-3,5-Dihydroxy-2-((E)-(S)-3-hydroxy-oct-1-enyl)-cyclopentyl]-hept-5-enoic acid]
–	170	1300	–	10	–	–	CCC#CCC(C)C(O)C#CC1C(O)CC2CC(=CCOCC(=O)O)CC21 (configuration not stated) [CAS_94079-80-8]
–	–	–	–	–	–	1700	O=C(O)CCCCCCc1c(O)[nH]c(=O)n1CCC(O)C1CCCCC1 (configuration not stated) [NSC_3080928]
–	110	–	–	16	–	–	CC#CCC(C)C(O)C=CC1C(O)CC2Oc3c(CCCC(=O)O)cccc3C21 (configuration not stated) [NSC_2352]
1000	3.7	–	–	–	14	60	O=C(O)CCC/C=C\C[C@H]1C(=O)C[C@@H](O)[C@@H]1/C=C/[C@@H](O)CCc1ccccc1 [17-PHENYL TRINOR PROSTAGLANDIN E2]
–	–	110	–	–	–	–	CCCC1([C@@H](O)C/C=C/C2[C@H](O)CC(=O)[C@@H]2CCCCCCC(=O)OC)CCC1 (some centres not stated) [Butaprost (Methyl Ester)]
2300	22	1600	–	11	21	–	CC#CCC(C)[C@H](O)/C=C/[C@@H]1[C@H]2C/C(=C/CCCC(=O)O)C[C@H]2C[C@H]1O (some centres not stated)
–	280	–	–	–	–	47	CCCCCC(O)CC=C1C(=O)C=CC1CC=CCCCC(=O)O (configuration not stated) [CAS_41598-07-6]
–	–	–	–	–	–	1000	C[C@H](O)CCCC(O)C=CC1C(O)CC(=O)C1CC=CCCCC(=O)O (some centres not stated) [PGE2,19R(OH)]
2300	31	1600	–	110	–	1200	CCCCC[C@H](O)/C=C/[C@@H]1[C@H]2C/C(=C\CCCC(=O)O)C[C@H]2C[C@H]1O
500	0.68	–	1300	–	120	124	O=C(O)CCCCCCC1C(=O)CCC1C=CC(O)COc1ccccc1 (configuration not stated) [CAS_80558-61-8]
